The target of test [1] is Polyadenylate-binding protein 1 (Homo sapiens, UniProt P11940). In words: blockers of PABP interaction with poly(A) – biochemical, fluorescence polarization, […] (AID 2014). For orientation: Fluorescence polarisation rises when a labelled molecule tumbles more slowly, as on binding a larger partner.
The target in test [2] is Eukaryotic translation initiation factor 4H (Homo sapiens, UniProt Q15056). In words: eIF4H binding inhibition – biochemical, uHTS, fluorescence polarization, translation initiation inhibitor project, primary screen (AID 2012).
Test [3] can be described thus: Luminescence Cell-Based Dose Confirmation HTS to Identify Inhibitors of Platelet Dense Granule Release. [Related pubchem assays: 1663 (Primary HTS), 1678 (Summary of Project)]. The test is classed as functional.
A further test is described as follows: cells. The test is classed as functional.
The target in a further test is Large T antigen (Simian virus 40, UniProt P03070). It counts as functional, Betapolyomavirus macacae.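 Note: Confirmatory-stage PubChem screen for compounds that inhibit SV40 T antigen.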
Sequence of Large T antigen (P03070 whole entry): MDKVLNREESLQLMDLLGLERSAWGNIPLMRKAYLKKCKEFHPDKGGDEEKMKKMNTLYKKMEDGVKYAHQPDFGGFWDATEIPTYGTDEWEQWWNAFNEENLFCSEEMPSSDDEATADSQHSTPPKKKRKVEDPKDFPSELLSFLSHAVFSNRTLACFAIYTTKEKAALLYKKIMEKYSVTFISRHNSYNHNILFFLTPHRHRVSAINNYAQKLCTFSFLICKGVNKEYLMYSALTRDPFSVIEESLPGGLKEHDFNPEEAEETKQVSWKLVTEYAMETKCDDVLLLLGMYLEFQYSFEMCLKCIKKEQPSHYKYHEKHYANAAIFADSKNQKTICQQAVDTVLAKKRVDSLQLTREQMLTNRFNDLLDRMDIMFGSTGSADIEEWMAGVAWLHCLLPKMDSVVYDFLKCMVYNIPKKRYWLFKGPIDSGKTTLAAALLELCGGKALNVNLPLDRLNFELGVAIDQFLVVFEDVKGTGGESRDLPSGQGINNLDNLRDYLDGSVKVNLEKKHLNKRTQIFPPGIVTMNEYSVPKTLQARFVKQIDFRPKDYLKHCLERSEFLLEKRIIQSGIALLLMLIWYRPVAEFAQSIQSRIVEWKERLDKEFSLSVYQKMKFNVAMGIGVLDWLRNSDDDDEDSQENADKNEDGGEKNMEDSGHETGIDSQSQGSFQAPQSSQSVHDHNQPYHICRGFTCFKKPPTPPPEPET
Test [4] deals with Luciferin 4-monooxygenase (Photinus pyralis, UniProt P08659). Nature of the test: inhibition of purified Photinus pyralis luciferase – biochemical, luminescence, dose response (AID 1891).
Sequence of Luciferin 4-monooxygenase (P08659 whole entry): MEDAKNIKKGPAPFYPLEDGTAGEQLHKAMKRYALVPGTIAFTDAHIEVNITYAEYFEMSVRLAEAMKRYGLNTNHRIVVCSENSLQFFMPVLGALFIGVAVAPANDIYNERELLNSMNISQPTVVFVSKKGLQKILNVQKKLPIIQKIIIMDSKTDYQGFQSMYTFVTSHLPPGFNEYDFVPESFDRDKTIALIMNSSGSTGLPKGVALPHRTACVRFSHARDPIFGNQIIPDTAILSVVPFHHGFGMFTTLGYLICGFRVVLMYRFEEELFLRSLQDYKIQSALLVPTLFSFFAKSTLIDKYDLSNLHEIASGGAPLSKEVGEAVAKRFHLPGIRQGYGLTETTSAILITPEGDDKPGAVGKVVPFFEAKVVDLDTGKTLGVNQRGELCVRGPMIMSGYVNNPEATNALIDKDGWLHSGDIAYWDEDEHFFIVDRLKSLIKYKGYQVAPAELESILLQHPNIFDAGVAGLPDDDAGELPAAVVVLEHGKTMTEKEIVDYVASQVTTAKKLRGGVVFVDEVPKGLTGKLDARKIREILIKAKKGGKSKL
The next test concerns the target T1, Aminopeptidase N (Plasmodium falciparum FcB1/Columbia, UniProt O96935).
T1 sequence (O96935 whole entry): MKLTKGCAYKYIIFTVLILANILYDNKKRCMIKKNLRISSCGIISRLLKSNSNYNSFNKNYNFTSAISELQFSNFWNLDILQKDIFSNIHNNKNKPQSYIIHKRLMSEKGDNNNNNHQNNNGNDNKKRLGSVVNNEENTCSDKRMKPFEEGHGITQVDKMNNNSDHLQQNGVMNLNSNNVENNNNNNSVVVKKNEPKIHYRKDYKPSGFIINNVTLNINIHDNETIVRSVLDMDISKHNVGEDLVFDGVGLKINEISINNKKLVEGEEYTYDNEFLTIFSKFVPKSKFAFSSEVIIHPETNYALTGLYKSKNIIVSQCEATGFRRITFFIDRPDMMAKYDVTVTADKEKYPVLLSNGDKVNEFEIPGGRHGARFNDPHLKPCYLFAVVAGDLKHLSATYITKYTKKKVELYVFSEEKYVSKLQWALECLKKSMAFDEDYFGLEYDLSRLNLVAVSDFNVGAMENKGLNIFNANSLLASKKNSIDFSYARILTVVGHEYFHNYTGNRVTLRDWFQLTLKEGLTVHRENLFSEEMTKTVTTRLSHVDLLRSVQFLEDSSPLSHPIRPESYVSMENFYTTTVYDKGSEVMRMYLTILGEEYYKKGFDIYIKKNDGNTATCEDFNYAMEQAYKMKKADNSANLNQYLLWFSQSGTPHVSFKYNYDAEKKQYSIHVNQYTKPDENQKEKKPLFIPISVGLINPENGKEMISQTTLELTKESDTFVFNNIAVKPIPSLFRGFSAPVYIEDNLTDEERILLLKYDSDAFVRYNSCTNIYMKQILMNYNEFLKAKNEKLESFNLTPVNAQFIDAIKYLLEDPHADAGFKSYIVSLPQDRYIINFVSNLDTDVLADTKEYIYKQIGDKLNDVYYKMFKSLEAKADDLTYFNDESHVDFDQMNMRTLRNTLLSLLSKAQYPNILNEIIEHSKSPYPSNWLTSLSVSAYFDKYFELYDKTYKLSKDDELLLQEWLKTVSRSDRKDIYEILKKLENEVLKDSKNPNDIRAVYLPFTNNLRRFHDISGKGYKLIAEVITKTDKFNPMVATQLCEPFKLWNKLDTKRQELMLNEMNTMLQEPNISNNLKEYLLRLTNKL
Nature of the test: malaria alanyl aminopeptidase activity blockers – biochemical, fluorogenic H-Leu-NHMec substrate, 1536-well (AID 1445). Further details: species or system Plasmodium falciparum 3D7, 3D7.

Test [5] has as its system Streptococcus sp. 'group A'. Nature of the test: Streptococcus pyogenes SK(-)GAS viability under kanamycin – luminescence, BacTiterGlo, confirmation, counter-screen for streptokinase expression inhibitor project, dose response (AID 1900). The test is classed as functional, organism-based. Background: A counterscreen serves to expose hits that act by an unwanted route or on another target.

A short description of test [6]: Vero E6 cell cytotoxicity, dose response, cytotoxicity control for non-replicating M. tuberculosis project, secondary assay (AID 492998). It counts as functional, VeroE6. To be noted: Vero C1008.
Test [7] is described as follows: HepG2 cell cytotoxicity, dose response, cytotoxicity control for non-replicating M. tuberculosis project (AID 489018). It counts as functional. Conditions: Mycobacterium tuberculosis.
For the next test, the system named is Streptococcus. In words: GAS UMAA2166 growth inhibition – luminescence, BacTiterGlo, counter-screen for streptokinase expression inhibitor project, dose response (AID 1915).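 Note: potency for reduction of bacterial viability or growth.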 The test is classed as functional, organism-based.
Another test deals with T2, Streptokinase A (Streptococcus pyogenes serotype M1, UniProt P10520).
T2 sequence (P10520 whole entry): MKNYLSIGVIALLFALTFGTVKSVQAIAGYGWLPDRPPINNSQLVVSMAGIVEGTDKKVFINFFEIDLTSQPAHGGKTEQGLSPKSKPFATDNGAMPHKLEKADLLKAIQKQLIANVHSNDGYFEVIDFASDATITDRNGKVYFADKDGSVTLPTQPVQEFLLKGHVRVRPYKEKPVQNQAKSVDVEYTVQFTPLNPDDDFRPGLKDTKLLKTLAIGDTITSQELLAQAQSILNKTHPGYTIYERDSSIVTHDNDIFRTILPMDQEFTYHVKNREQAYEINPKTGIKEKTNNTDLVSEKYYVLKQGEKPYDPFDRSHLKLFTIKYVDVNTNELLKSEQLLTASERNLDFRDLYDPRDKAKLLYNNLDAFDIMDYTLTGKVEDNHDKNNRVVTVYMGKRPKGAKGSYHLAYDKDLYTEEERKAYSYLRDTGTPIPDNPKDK
Nature of the test: viability-normalized secreted streptokinase activity reduction – plasminogen activation absorbance, OD405, dose response (AID 1914).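 Note: secreted streptokinase activity via plasminogen activation per viability signal from cell pellet.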 The test is classed as functional, Streptococcus pyogenes M1 GAS.

Test [8] in a line: THP-1 cell cytotoxicity, dose response, cytotoxicity control for non-replicating M. tuberculosis project (AID 489025). The test is classed as functional.
The target in test [9] is DNA dC->dU-editing enzyme APOBEC-3A (Homo sapiens, UniProt P31941). In words: Dose Response confirmation of small molecule APOBEC3A DNA Deaminase Inhibitors via a fluorescence-based single-stranded DNA deaminase assay. [Related pubchem assays (depositor defined):AID493011, AID493024]. It counts as functional.
Sequence of DNA dC->dU-editing enzyme APOBEC-3A (P31941 whole entry): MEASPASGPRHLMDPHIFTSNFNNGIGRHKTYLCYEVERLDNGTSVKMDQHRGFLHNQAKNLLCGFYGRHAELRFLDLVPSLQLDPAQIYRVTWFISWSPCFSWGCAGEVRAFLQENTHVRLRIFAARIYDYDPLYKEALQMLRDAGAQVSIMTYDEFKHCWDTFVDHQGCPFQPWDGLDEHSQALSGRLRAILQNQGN
For test [10], the target named is DNA dC->dU-editing enzyme APOBEC-3G (Homo sapiens, UniProt Q9HC16). The test is classed as functional.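 Note: Dose-response counterscreen measuring inhibition of APOBEC3G DNA deaminase activity, run while confirming APOBEC3A inhibitors.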
Sequence of DNA dC->dU-editing enzyme APOBEC-3G (Q9HC16 whole entry): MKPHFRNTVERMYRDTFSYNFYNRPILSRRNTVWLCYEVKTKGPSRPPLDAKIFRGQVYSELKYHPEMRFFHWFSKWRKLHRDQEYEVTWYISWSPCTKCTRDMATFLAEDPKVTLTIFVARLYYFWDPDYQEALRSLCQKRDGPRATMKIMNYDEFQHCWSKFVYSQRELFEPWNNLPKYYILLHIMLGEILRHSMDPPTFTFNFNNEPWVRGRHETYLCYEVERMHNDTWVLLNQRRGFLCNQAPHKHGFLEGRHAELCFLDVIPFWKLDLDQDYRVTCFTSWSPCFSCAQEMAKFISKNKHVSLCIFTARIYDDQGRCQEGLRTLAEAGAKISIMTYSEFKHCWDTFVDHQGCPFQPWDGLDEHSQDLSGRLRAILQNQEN
Test [11] in a line: microbe, parasite or virus in culture. It counts as functional. Conditions: Mycobacterium tuberculosis.
The next test deals with T3, Protein RecA (Mycobacterium tuberculosis, UniProt P9WHJ3).
T3 sequence (P9WHJ3 whole entry): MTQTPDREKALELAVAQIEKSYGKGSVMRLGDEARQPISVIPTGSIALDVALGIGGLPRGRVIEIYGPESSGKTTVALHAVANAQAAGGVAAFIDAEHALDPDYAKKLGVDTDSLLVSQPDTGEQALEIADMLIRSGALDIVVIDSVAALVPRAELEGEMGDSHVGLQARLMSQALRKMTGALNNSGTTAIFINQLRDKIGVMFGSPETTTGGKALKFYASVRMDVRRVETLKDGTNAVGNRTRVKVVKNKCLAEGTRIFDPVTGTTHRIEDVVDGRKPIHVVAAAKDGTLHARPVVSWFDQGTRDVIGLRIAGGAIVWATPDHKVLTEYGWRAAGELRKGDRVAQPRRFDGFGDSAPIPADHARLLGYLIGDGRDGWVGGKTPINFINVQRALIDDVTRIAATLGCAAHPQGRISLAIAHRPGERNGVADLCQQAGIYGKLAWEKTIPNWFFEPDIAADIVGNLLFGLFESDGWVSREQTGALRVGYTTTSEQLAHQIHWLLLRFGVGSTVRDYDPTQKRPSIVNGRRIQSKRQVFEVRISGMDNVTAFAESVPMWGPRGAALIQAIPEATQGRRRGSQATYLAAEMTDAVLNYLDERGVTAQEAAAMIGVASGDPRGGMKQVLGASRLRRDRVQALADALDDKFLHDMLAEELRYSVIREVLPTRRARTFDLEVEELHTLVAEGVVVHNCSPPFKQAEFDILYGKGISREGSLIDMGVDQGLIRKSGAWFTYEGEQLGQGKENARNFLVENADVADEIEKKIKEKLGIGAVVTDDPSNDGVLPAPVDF
Nature of the test: Fluorescence Cell-Free Homogeneous Dose Retest to Identify Inhibitors of RecA-Intein Splicing Activity. [Related pubchem assays (depositor defined):AID2097, AID2223, AID489010, AID492950]. It counts as functional.

Test [12] has as its target T4, Replicative DNA helicase DnaB (Mycobacterium tuberculosis, UniProt P9WMR3).
T4 sequence (P9WMR3 whole entry): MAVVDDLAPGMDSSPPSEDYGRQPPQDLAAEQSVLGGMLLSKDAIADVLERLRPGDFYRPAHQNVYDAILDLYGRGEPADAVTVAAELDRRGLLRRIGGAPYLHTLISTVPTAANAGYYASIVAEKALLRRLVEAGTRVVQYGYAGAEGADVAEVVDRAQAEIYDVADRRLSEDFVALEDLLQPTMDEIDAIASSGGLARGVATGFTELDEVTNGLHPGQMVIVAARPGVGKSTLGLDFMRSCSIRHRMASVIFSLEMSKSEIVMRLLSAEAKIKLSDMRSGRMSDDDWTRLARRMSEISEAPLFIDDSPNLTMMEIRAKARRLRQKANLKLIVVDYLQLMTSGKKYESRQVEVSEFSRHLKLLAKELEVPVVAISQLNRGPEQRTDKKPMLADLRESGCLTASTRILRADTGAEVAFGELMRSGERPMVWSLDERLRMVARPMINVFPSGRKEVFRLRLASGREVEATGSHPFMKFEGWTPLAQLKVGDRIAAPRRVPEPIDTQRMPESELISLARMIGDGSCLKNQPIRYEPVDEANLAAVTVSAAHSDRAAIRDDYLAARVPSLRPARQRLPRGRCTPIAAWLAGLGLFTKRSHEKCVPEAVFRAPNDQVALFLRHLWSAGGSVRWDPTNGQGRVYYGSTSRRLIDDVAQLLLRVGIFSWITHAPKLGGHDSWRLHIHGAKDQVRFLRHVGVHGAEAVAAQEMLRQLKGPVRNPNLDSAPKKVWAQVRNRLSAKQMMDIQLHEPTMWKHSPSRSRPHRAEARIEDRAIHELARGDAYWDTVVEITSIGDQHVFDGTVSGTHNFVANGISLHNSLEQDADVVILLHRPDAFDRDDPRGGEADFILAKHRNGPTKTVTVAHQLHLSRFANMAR
In words: DnaB intein splicing inhibitors, dose response, biochemical, cell-free fluorescence (AID 449749). The test is classed as functional.

A further test has as its system Vero. In words: cells. It counts as functional. To be noted: Chlorocebus sabaeus.
The nature of test [13]: viability of HCT116 lacking mutant beta-catenin – cell-based, human colon tumor, dose response (AID 1045).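 Note: HCT116 colon tumor cells with beta catenin knocked out; cells exposed to compound for 60 hours.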 It counts as functional.
A short description of test [14]: non-specific 3'UTR reporter inhibition in Clone20-Shn3RL – cell-based, Renilla luciferase, cherry-picked, counter-screen for Shn3 inhibitor project, dose response (AID 624133). The test is classed as functional.
The target of the next test is Genome polyprotein (dengue virus type 2, UniProt P29990). Nature of the test: flavivirus cap methylation enzyme inhibition – biochemical, confirmation dose response, primary screen (AID 588689). The test is classed as functional.
Sequence of Genome polyprotein (P29990 2492-3391 limits assumed): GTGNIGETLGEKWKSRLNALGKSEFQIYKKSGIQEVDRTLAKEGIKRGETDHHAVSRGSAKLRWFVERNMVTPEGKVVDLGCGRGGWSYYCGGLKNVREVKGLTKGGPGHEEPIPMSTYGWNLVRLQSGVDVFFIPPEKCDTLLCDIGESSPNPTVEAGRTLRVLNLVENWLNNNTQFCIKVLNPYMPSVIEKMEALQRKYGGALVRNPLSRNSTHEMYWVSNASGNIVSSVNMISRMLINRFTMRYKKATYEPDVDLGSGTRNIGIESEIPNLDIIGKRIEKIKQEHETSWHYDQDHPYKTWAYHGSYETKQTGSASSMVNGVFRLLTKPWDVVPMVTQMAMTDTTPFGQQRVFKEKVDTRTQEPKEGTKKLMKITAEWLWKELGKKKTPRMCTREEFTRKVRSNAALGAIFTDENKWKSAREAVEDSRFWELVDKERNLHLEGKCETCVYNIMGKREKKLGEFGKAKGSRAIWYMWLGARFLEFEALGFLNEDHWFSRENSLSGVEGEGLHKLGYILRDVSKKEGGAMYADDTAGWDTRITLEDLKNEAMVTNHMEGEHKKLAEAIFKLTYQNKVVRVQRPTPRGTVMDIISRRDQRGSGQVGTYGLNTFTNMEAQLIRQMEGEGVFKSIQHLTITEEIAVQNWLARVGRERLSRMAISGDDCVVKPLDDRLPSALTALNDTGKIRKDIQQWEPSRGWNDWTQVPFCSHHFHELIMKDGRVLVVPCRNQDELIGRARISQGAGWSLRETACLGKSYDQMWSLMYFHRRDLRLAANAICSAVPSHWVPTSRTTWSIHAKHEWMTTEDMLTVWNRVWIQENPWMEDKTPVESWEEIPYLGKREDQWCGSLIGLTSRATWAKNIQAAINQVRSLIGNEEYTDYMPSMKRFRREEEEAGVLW
A short description of test [15]: reduction of Shn3 3'UTR-driven luciferase in osteoblasts – cell-based, Clone20 osteoblasts, firefly luciferase, cherry-picked, dose response (AID 624132).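 Note: firefly luciferase luminescence from reporter carrying the Shn3 3'UTR in osteoblasts.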 It counts as functional.
A short description of test [16]: viability of PTEN-deleted HCT116 cells – cell-based, HCT116 PTEN knockout, dose response (AID 1047).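 Note: HCT116 colon tumor cells with PTEN knocked out; cells exposed to compound for 60 hours before readout; potency for loss of cell viability measured by luminescence.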 The test is classed as functional.

The source made the active and inactive calls.

Sequence of Polyadenylate-binding protein 1 (P11940 whole entry): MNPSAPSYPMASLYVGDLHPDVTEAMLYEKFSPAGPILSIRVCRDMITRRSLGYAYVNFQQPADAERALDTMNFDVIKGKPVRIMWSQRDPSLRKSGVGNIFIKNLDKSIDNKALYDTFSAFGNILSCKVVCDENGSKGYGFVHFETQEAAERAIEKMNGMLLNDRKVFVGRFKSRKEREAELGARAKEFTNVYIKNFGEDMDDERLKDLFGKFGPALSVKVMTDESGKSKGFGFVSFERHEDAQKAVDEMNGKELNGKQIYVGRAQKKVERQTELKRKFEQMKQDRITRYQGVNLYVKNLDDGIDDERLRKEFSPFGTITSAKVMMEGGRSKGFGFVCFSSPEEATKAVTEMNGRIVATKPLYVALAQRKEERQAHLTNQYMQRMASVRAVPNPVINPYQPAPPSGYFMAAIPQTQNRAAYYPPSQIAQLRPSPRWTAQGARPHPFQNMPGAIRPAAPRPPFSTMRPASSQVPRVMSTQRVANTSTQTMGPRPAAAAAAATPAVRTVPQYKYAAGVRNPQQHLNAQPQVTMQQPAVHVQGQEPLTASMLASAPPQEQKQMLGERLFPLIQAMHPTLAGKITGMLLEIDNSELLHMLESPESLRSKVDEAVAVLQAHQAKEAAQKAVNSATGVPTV

Broadly, the IC50 is the midpoint of a concentration-inhibition curve. Regarding `CCN1C(NCCc2cccnc2)=N[C@@H](c2ccccc2)C(C(=O)OC)=C1C`, the values for the IC50 in [1] and in [2] were 12 µM (active) and > 100 µM (inactive), respectively.

Usually EC50 stands for the concentration giving half of the maximal effect. As for `COc1cc(/C=C2/C(=O)NN(c3ccc(Cl)cc3)C2=O)ccc1OC(=O)c1ccco1`, the EC50 in test [3] and in [4] was > 112 µM (not active) throughout. The IC50 was 16.6 µM (active) in the test “cells” and 21.6 µM (active) at Large T antigen.

In the case of `C/C(=N\NC(=O)c1ccccc1O)C1C(=O)c2ccccc2C1=O`, the IC50 on Aminopeptidase N is 12.8 µM (active). Also, the figures for the EC50 (in test [5]; with Streptococcus; at Streptokinase A) were 3.62 µM (active), 41 µM (active) and > 150 µM (not active), respectively. In addition, the results for the CC50 in [6], in test [7] and in [8] were 4.99 µM (active), > 20 µM (active) and 10.5 µM (active), respectively.

With `CC(Oc1ccc(F)cc1)C(=O)Nc1cc(S(=O)(=O)N2CCOCC2)ccc1N1CCN(C)CC1` (stereo not drawn), the IC50 in test [9] was 4.91 µM (active); in test [10] it was 8.29 µM (active).

In the case of `CC(=O)c1c(COC(=O)c2cccnc2)nc2ccccc2[n+]1[O-]`, the IC50 in [9] is 1.48 µM (active); in test [10], 2.09 µM (active).

For the compound `CCc1cc2c(=O)c(-c3nc4ccccc4n3C)coc2c(CN2CCCCC2C)c1O` (stereo not drawn), the IC50 in test [1] was 57.8 µM (active); in test [2] it was 15.1 µM (active).

By AC50 is commonly meant the concentration at which the activity in the assay is half-maximal. With `N#CCn1c(CCl)nc2ccccc2c1=O`, the CC50 in test [11] was 30.8 µM (active); with Vero, 14.9 µM (active). Further, the EC50 on Protein RecA is 7.2 µM (active). In addition, the AC50 in [12] was 80.6 µM (active). In addition, the IC50 on Large T antigen is 15.1 µM (active).

With `O=C1ON=C(c2ccccc2)/C1=C/c1ccc(-c2ccccc2[N+](=O)[O-])o1`, the EC50 in test [13] was 21.4 µM (active); in test [16], 42.5 µM (active). Besides, the AC50 in test [14] is 23.2 µM (active); in test [15] it was 7.21 µM (active). The IC50 was 11.6 µM (active) at Genome polyprotein and 52.8 µM (active) at Large T antigen.

In the case of `COc1cc(O)ccc1C(=O)CCc1ccc(O)cc1`, the IC50 at Large T antigen was 13.3 µM (active).

Regarding `CC(C)C[C@H](NC(=O)C1CC(=O)N(c2ccc3c(c2)OCO3)C1)C(=O)NCc1ccco1` (stereo partly drawn), the IC50 is > 100 µM (inactive) in test [1] and 20 µM (active) in test [2].

Source of the values: ChEMBL document CHEMBL1201862, “PubChem BioAssay data set” (2004).
